Here are results for seven compounds from patent US20150344540A1, “NOVEL GLP-1 RECEPTOR AGONISTS WITH CHOLESTEROL EFFLUX ACTIVITY” (NOVO NORDISK A/S, priority 2012, published 2015).

Read-outs that look alike come from different tables or passages of the source. Where a SMILES comes first, the peptide text is derived from it. [ ]: non-standard residue; d: D form. Aib = CC(C)(N)C(=O)O

The test system of assay [1] is Mouse monocyte/macrophage cell line, RAW 264.7. Briefly: Cholesterol efflux assay (3H-cholesterol, macrophage cell line). The conditions noted are these: RAW 264.7, 4 hrs incubation, 0.1% human serum albumin; for 4 h Cholesterol Efflux Emax: ABCA1-mediated efflux. The format is cell-based.
Assay [2] addresses human GLP-1 receptor (Homo sapiens, UniProt P43220). Briefly: Functional GLP-1 receptor assay, in vitro potency (CRE luciferase; whole cells). The format is cell-based.
Where [3] appears, read: GLP1R CRE luc 1% HSA EC50 Mean Value, BHK cells expressing human GLP-1 receptor, 1% HSA.
The mark [4] stands for this setting: BHK cells expressing human GLP-1 receptor, 0% HSA, read-out: GLP1R CRE luc 0% HSA EC50 Mean Value.

Sequence of human GLP-1 receptor (P43220 24-463): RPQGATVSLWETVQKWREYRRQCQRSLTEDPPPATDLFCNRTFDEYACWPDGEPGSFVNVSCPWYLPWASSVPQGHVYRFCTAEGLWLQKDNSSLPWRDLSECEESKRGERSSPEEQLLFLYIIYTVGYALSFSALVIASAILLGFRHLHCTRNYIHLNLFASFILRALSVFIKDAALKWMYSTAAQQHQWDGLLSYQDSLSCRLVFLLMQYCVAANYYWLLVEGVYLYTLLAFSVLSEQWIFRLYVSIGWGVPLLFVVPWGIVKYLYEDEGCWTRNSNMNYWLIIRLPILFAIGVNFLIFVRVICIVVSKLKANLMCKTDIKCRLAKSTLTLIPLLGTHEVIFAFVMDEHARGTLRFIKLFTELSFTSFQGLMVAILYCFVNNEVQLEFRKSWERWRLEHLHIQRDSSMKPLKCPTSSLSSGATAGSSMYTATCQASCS

Usually EC50 stands for the concentration needed to bring the measured effect to its halfway point. For `CC(C)C[C@H](NC(=O)[C@H](Cc1ccccc1)NC(=O)[C@H](CCC(=O)O)NC(=O)[C@H](CCCCN)NC(=O)C(C)(C)NC(=O)[C@H](CCCCN)NC(=O)[C@H](CCC(=O)O)NC(=O)[C@H](CC(C)C)NC(=O)[C@H](CC(C)C)NC(=O)[C@H](Cc1c[nH]c2ccccc12)NC(=O)[C@H](CCC(N)=O)NC(=O)[C@@H](NC(=O)[C@H](Cc1ccccc1)NC(=O)[C@H](CCC(=O)O)NC(=O)[C@H](CCCNC(=N)N)NC(=O)[C@@H](NC(=O)[C@H](C)NC(=O)[C@H](CCC(=O)O)NC(=O)CNC(=O)[C@H](CCC(=O)O)NC(=O)[C@H](CC(C)C)NC(=O)[C@H](Cc1ccc(O)cc1)NC(=O)[C@H](CO)NC(=O)[C@H](CO)NC(=O)[C@@H](NC(=O)[C@H](CC(=O)O)NC(=O)[C@H](CO)NC(=O)[C@@H](NC(=O)[C@H](Cc1ccccc1)NC(=O)[C@@H](NC(=O)CNC(=O)[C@H](CCC(=O)O)NC(=O)C(C)(C)NC(=O)[C@@H](N)Cc1c[nH]cn1)[C@@H](C)O)[C@@H](C)O)C(C)C)C(C)C)C(C)C)C(N)=O` [Compound 80, [Aib8,Glu23,Val25,Arq26,Val29,Gln30,Leu33,Glu34,Lys35,Aib36,Lys37]-GLP-1-(7-37)-peptidyl-Glu-Phe-Leu amide] (H-H[Aib]EGTFTSDVSSYLEGEAVREFVQWLLEK[Aib]KEFL-NH2), in assay [1], the “4 h Cholesterol Efflux Emax” value came to 108%. It took 0.029 nM to reach a half-maximal effect in assay [2] (setting [3]) (EC50).
For `CC[C@H](C)[C@H](NC(=O)[C@H](Cc1ccccc1)NC(=O)[C@H](CCC(=O)O)NC(=O)[C@H](CCCNC(=N)N)NC(=O)[C@@H](NC(=O)[C@H](C)NC(=O)[C@H](CCC(=O)O)NC(=O)CNC(=O)[C@H](CCC(=O)O)NC(=O)[C@H](CC(C)C)NC(=O)[C@H](Cc1ccc(O)cc1)NC(=O)[C@H](CO)NC(=O)[C@H](CO)NC(=O)[C@@H](NC(=O)[C@H](CC(=O)O)NC(=O)[C@H](CO)NC(=O)[C@@H](NC(=O)[C@H](Cc1ccccc1)NC(=O)[C@@H](NC(=O)CNC(=O)[C@H](CCC(=O)O)NC(=O)C(C)(C)NC(=O)[C@@H](N)Cc1c[nH]cn1)[C@@H](C)O)[C@@H](C)O)C(C)C)C(C)C)C(=O)N[C@@H](C)C(=O)N[C@@H](Cc1c[nH]c2ccccc12)C(=O)N[C@@H](CC(C)C)C(=O)N[C@H](C(=O)N[C@@H](CCC(=O)O)C(=O)N[C@@H](CCCCN)C(=O)NC(C)(C)C(=O)N[C@@H](CCCCN)C(=O)N[C@@H](CCC(=O)O)C(=O)N[C@@H](Cc1ccccc1)C(=O)N[C@@H](CC(C)C)C(N)=O)C(C)C` [Compound 81] (H-H[Aib]EGTFTSDVSSYLEGEAVREFIAWLVEK[Aib]KEFL-NH2), the “4 h Cholesterol Efflux Emax” value in assay [1] came out at 112%. Also, the results for the EC50 in assay [2] (setting [4]) and in assay [2] (setting [3]) were 0.076 nM and 0.028 nM, respectively.
Take `CC(C)C[C@H](NC(=O)[C@H](Cc1ccccc1)NC(=O)[C@H](CCC(=O)O)NC(=O)[C@H](CCCCN)NC(=O)C(C)(C)NC(=O)[C@H](CCCCN)NC(=O)[C@H](CCC(=O)O)NC(=O)[C@@H](NC(=O)[C@H](CC(C)C)NC(=O)[C@H](Cc1c[nH]c2ccccc12)NC(=O)[C@H](C)NC(=O)[C@@H](NC(=O)[C@H](Cc1ccccc1)NC(=O)[C@H](CCC(=O)O)NC(=O)[C@H](CCCCN)NC(=O)[C@@H](NC(=O)[C@H](C)NC(=O)[C@H](CCC(=O)O)NC(=O)CNC(=O)[C@H](CCC(=O)O)NC(=O)[C@H](CC(C)C)NC(=O)[C@H](Cc1ccc(O)cc1)NC(=O)[C@H](CO)NC(=O)[C@H](CO)NC(=O)[C@@H](NC(=O)[C@H](CC(=O)O)NC(=O)[C@H](CO)NC(=O)[C@@H](NC(=O)[C@H](Cc1ccccc1)NC(=O)[C@@H](NC(=O)CNC(=O)[C@H](CCC(=O)O)NC(=O)C(C)(C)NC(=O)[C@@H](N)Cc1c[nH]cn1)[C@@H](C)O)[C@@H](C)O)C(C)C)C(C)C)C(C)C)C(C)C)C(N)=O` [Compound 82, [Aib8,Glu23,Val25,Val29,Glu34,Lys35,Aib36,Lys37]-GLP-1-(7-37)-peptidyl-Glu-Phe-Leu amide] (H-H[Aib]EGTFTSDVSSYLEGEAVKEFVAWLVEK[Aib]KEFL-NH2; N-terminus assumed): the “4 h Cholesterol Efflux Emax” value in assay [1] turned out to be 120%. For the same compound, the 50% effective concentration (EC50) in assay [1] (read-out: 4 h Cholesterol Efflux EC50, ABCA1-mediated efflux (CPT-cAMP induced minus non-induced)) was determined as 690 nM; in assay [2] (GLP1R CRE luc 0% HSA EC50 Mean Value), 0.111 nM; in assay [2] (GLP1R CRE luc 1% HSA EC50 Mean Value), 0.036 nM.
As for `CC[C@H](C)[C@H](NC(=O)[C@H](Cc1ccccc1)NC(=O)[C@H](CCC(=O)O)NC(=O)[C@H](CCCCN)NC(=O)[C@@H](NC(=O)[C@H](C)NC(=O)[C@H](CCC(=O)O)NC(=O)CNC(=O)[C@H](CCC(=O)O)NC(=O)[C@H](CC(C)C)NC(=O)[C@H](Cc1ccc(O)cc1)NC(=O)[C@H](CO)NC(=O)[C@H](CO)NC(=O)[C@@H](NC(=O)[C@H](CC(=O)O)NC(=O)[C@H](CO)NC(=O)[C@@H](NC(=O)[C@H](Cc1ccccc1)NC(=O)[C@@H](NC(=O)CNC(=O)[C@H](CCC(=O)O)NC(=O)C(C)(C)NC(=O)[C@@H](N)Cc1c[nH]cn1)[C@@H](C)O)[C@@H](C)O)C(C)C)C(C)C)C(=O)N[C@@H](CCC(N)=O)C(=O)N[C@@H](Cc1c[nH]c2ccccc12)C(=O)N[C@@H](CC(C)C)C(=O)N[C@H](C(=O)N[C@@H](CCC(=O)O)C(=O)N[C@@H](CCCCN)C(=O)NC(C)(C)C(=O)N[C@@H](CCCCN)C(=O)N[C@@H](CCC(=O)O)C(=O)N[C@@H](Cc1ccccc1)C(=O)N[C@@H](CC(C)C)C(N)=O)C(C)C` [Compound 83, [Aib8,Glu23,Val25,Gln30,Glu34,Lys35,Aib36,Lys37]-GLP-1-(7-37)-peptidyl-Glu-Phe-Leu amide] (H-H[Aib]EGTFTSDVSSYLEGEAVKEFIQWLVEK[Aib]KEFL-NH2), the “4 h Cholesterol Efflux Emax” value in assay [1] is reported as 97%. In assay [2] (setting [3]), this compound displayed an EC50 of 0.042 nM.
Consider `CC[C@H](C)[C@H](NC(=O)[C@H](Cc1ccccc1)NC(=O)[C@H](CCC(=O)O)NC(=O)[C@H](CCCCN)NC(=O)[C@@H](NC(=O)[C@H](C)NC(=O)[C@H](CCC(=O)O)NC(=O)CNC(=O)[C@H](CCC(=O)O)NC(=O)[C@H](CC(C)C)NC(=O)[C@H](Cc1ccc(O)cc1)NC(=O)[C@H](CO)NC(=O)[C@H](CO)NC(=O)[C@@H](NC(=O)[C@H](CC(=O)O)NC(=O)[C@H](CO)NC(=O)[C@@H](NC(=O)[C@H](Cc1ccccc1)NC(=O)[C@@H](NC(=O)CNC(=O)[C@H](CCC(=O)O)NC(=O)C(C)(C)NC(=O)[C@@H](N)Cc1c[nH]cn1)[C@@H](C)O)[C@@H](C)O)C(C)C)C(C)C)C(=O)N[C@@H](C)C(=O)N[C@@H](Cc1c[nH]c2ccccc12)C(=O)N[C@@H](CC(C)C)C(=O)N[C@@H](CC(C)C)C(=O)N[C@@H](CCC(=O)O)C(=O)N[C@@H](CCCCN)C(=O)NC(C)(C)C(=O)N[C@@H](CCCCN)C(=O)N[C@@H](CCC(=O)O)C(=O)N[C@@H](Cc1ccccc1)C(=O)N[C@@H](CC(C)C)C(N)=O` [Compound 84, [Aib8,Glu23,Val25,Leu33,Glu34,Lys35,Aib36,Lys37]-GLP-1-(7-37)-peptidyl-Glu-Phe-Leu amide] (H-H[Aib]EGTFTSDVSSYLEGEAVKEFIAWLLEK[Aib]KEFL-NH2), for which the “4 h Cholesterol Efflux Emax” value in assay [1] worked out at 94%. This compound also came in with a concentration giving a half-maximal response (EC50) in assay [2] (setting [3]) of 0.076 nM.
Take `CC[C@H](C)[C@H](NC(=O)[C@H](Cc1ccccc1)NC(=O)[C@H](CCC(=O)O)NC(=O)[C@H](CCCCN)NC(=O)[C@@H](NC(=O)[C@H](C)NC(=O)[C@H](CCC(=O)O)NC(=O)CNC(=O)[C@H](CCC(=O)O)NC(=O)[C@H](CC(C)C)NC(=O)[C@H](Cc1ccc(O)cc1)NC(=O)[C@H](CO)NC(=O)[C@H](CO)NC(=O)[C@@H](NC(=O)[C@H](CC(=O)O)NC(=O)[C@H](CO)NC(=O)[C@@H](NC(=O)[C@H](Cc1ccccc1)NC(=O)[C@@H](NC(=O)CNC(=O)[C@H](CCC(=O)O)NC(=O)C(C)(C)NC(=O)[C@@H](N)Cc1c[nH]cn1)[C@@H](C)O)[C@@H](C)O)C(C)C)C(C)C)C(=O)N[C@@H](CCCCN)C(=O)N[C@@H](Cc1c[nH]c2ccccc12)C(=O)N[C@@H](CC(C)C)C(=O)N[C@H](C(=O)N[C@@H](CCC(=O)O)C(=O)N[C@@H](CCCCN)C(=O)NC(C)(C)C(=O)N[C@@H](CCCCN)C(=O)N[C@@H](CCC(=O)O)C(=O)N[C@@H](Cc1ccccc1)C(=O)N[C@@H](CC(C)C)C(N)=O)C(C)C` [Compound 86, [Aib8,Glu23,Val25,Lys30,Glu34,Lys35,Aib36,Lys37]-GLP-1-(7-37)-peptidyl-Glu-Phe-Leu amide] (H-H[Aib]EGTFTSDVSSYLEGEAVKEFIKWLVEK[Aib]KEFL-NH2): in assay [1], the “4 h Cholesterol Efflux Emax” value was 102%. The figures for the EC50 in assay [2] (setting [4]) and in assay [2] (setting [3]) were 0.103 nM and 0.043 nM, respectively.
Turning to `CC[C@H](C)[C@H](NC(=O)[C@H](Cc1ccccc1)NC(=O)[C@H](CCC(=O)O)NC(=O)[C@H](CCCNC(=N)N)NC(=O)[C@@H](NC(=O)[C@H](C)NC(=O)[C@H](CCC(=O)O)NC(=O)CNC(=O)[C@H](CCC(=O)O)NC(=O)[C@H](CC(C)C)NC(=O)[C@H](Cc1ccc(O)cc1)NC(=O)[C@H](CO)NC(=O)[C@H](CO)NC(=O)[C@@H](NC(=O)[C@H](CC(=O)O)NC(=O)[C@H](CO)NC(=O)[C@@H](NC(=O)[C@H](Cc1ccccc1)NC(=O)[C@@H](NC(=O)CNC(=O)[C@H](CCC(=O)O)NC(=O)C(C)(C)NC(=O)[C@@H](N)Cc1c[nH]cn1)[C@@H](C)O)[C@@H](C)O)C(C)C)C(C)C)C(=O)N[C@@H](C)C(=O)N[C@@H](Cc1c[nH]c2ccccc12)C(=O)N[C@@H](CC(C)C)C(=O)N[C@H](C(=O)N[C@@H](CCC(=O)O)C(=O)N[C@@H](CCCNC(=N)N)C(=O)N[C@H](C(=O)N[C@@H](CCCNC(=N)N)C(=O)N[C@@H](CCC(=O)O)C(=O)N[C@@H](Cc1ccccc1)C(=O)N[C@@H](CC(C)C)C(=O)N[C@@H](CCCCN)C(N)=O)C(C)C)C(C)C` [Compound 91] (H-H[Aib]EGTFTSDVSSYLEGEAVREFIAWLVERVREFLK-NH2), the “4 h Cholesterol Efflux Emax” value in assay [1] is listed as 103%. This compound also returned an EC50 in assay [2] (setting [3]) of 0.118 nM.
